Data published in patent US10195204B2, “Methods of treating hemoglobinopathies” (DUKE UNIVERSITY, priority 2011, dated 2019).

Columns and labels:
[1] = system: ERK1/2 phosphorylation in SS RBCs; assay: ERK1/2 phosphorylation in SS RBCs, Western blot (phosphoERK normalized to total ERK); format: cell-based, human
Description: Aliquots of packed RBCs were treated with various reagents to affect cAMP signaling or protein phosphorylation. […] Treated RBCs were then washed 5 times with 4 ml PBS with Ca^2+ and Mg^2+. Normal RBCs were used as controls. Prior to adhesion assays, treated RBCs were labeled with PKH 26 red fluorescent cell linker kit (Sigma), following the manufacturer's instructions.
Treated packed RBCs were lysed with hypotonic buffer (5 mM Na2HPO4+1 mM EDTA+0.1% NaN3, pH 8) containing 2 mM phenylmethylsulphonylfluoride (PMSF, Sigma), phosphatase inhibitor cocktail (Sigma) and protease inhibitor cocktail (Sigma). Protein separation by polyacrylamide gel electrophoresis using equal amounts of total RBC membrane ghost proteins per lane, after correcting total protein measurements for residual hemoglobin content, and Western blot^19 using the appropriate Ab were then performed. Mouse 3T3/A31 fibroblast lysate was used as a ERK1/2 positive control for immunoblots. For total ERK1/2, membranes blotted with anti-phosphoERK Ab were stripped and reexposed to Western blotting using anti-ERK1/2 Ab. Bands were analyzed densitometrically using ImageJ software downloaded from the NIH website. PhosphoERK1/2 data were normalized according to total ERK1/2 and are presented as fold change in ERK phosphorylation.

[2] = system: ICAM-4 (LW) phosphorylation; assay: 32P labeling, ICAM-4 immunoprecipitation and detection of phosphorylation in SS RBCs; format: cell-based, human; conditions: SS RBCs preincubated with inhibitor
Description: Cells were then washed 4 times. ICAM-4 protein immunoprecipitation, and total and phospho-ICAM-4 detection were performed as previously described in detail.^4 To further confirm that the immunoprecipitates were specific for ICAM-4, anti-ICAM-4 mAb and the negative control immunoglobulin P3 were used to immunoprecipitate ICAM-4 from non-radiolabeled SS RBCs incubated in the presence or absence of epinephrine. Blots were then immunostained with anti-ICAM-4 mAb.

[3] = system: SS RBC adhesion to TNF-α-activated HUVECs; assay: Flow chamber adhesion of SS RBCs to TNF-α-activated HUVECs; format: cell-based, human; conditions: for effect on SS RBC adhesion to TNF-α-activated HUVECs: SS RBCs treated with MEK inhibitor (10 μM; RDEA119 1 and 10 μM)
Description: Cells were then washed three times with 5 ml PBS with Ca^2+ and Mg^2+. Prior to adhesion assays, washed treated SS RBCs were labeled with PKH 26 red fluorescent cell linker kit (Sigma-Aldrich, St. Louis, Mo.), following the manufacturer's instructions.
Graduated height flow chambers were used to quantify adhesion of RBCs to HUVECs substantially as previously described in detail.^4, 20 In some adhesion studies, slides coated with HUVECs were treated with human recombinant TNF-α at 10 ng/ml for 4 hours. Slides coated with HUVECs treated or not with TNF-α were then washed three times with 20 ml HBSS with 1.26 mM Ca^2+, 0.9 mM Mg^2+ (Gibco, Grand Island, N.Y.) warmed previously to 37° C. and then fit into a variable height flow chamber. The flow chamber was mounted on the stage of an inverted phase contrast microscope (Diaphot, Nikon Inc., Melville, N.Y.) connected to a thermoplate (Tokai Hit Co., Ltd., Japan) set at 37° C. Cells were observed using a video camera (RS photometrics,) attached to the microscope and connected to a Macintosh G4 computer. RBC (3 ml) suspended at 0.2% (vol/vol) in HBSS with Ca^2+, Mg^2+ were infused into the flow chamber and allowed to adhere to the slide for 10 min without flow. Before exposure to flow, a minimum of three fields at each of seven different locations along a line oriented normal to future flow were examined for the total number of fluorescent cells. Fluid flow (HBSS with Ca^2+, Mg^2+) was then started using a calibrated syringe pump. After exposure to flow, the fields were again examined and the number of adherent cells counted. The fraction of adherent cells was presented as (number of cells attached after exposure to flow)/(cells present per field before flow). The wall shear stress was calculated as:
[formula] τw=wall shear stress (dyne/cm^2); Q=volumetric flow rate (cm^3/s); μ is media viscosity, w is the width of the flow channel, and H(x) is the height of the flow chamber as a function of position along the microscope slide. Several investigators have shown that blood flow in small vessels may be continuous, with shear stresses of 1-2 dynes/cm^2, or flow may be intermittent. Our data were obtained using both intermittent and continuous flow conditions.

[4] = system: PMN adhesion to non-activated HUVECs; assay: Adhesion to HUVECs of PMNs co-incubated with epinephrine-stimulated SS RBCs; format: cell-based, human; conditions: SS RBCs pre-incubated with inhibitor for 1 hour, then 20 nM epinephrine 1 min
Description: The cells were then washed prior to admixture with fluorescently-labeled native polymorphonuclear cells (PMNs) obtained from healthy donors at a RBC:PMN ratio of 10:1. After co-incubation for 30 minutes at 37° C., cells mixtures were assayed for their ability to adhere to non-activated HUVECs. […] Downregulation of RBC adhesion receptor activity by targeting ERK may not only decrease SS RBC adhesion to the endothelium but also reduce RBC-stimulated leukocyte activation.

[5] = system: human SS RBC adhesion in inflamed venules and vaso-occlusion; assay: Intravital microscopy in TNF-α-treated nude mice infused with human SS RBCs treated ex vivo with MEK inhibitor; conditions: for percentage of venular length occupied by treated SS RBCs: compared to sham
Text: For some in vivo adhesion studies, packed SS RBCs were fluorescently labeled with the dye Dil (Molecular Probes Inc., Eugene, Oreg.), following the manufacturer's instructions. […] Cell morphology was checked by microscopy.

[6] = system: AA RBC membrane ghost phosphopeptides; assay: Label-free quantitative phosphoproteomic analysis of normal (AA) RBC membrane ghosts; format: cell-based, human
Description: (§1) Ghosted RBCs were spun at 14,000 rpm for 15 min at 4° C. to pellet membranes. Membrane pellets were washed with 1 mL 50 mM ammonium bicarbonate (pH 8.0) with vortexing and were then spun at 14,000 rpm for 30 min at 4° C. The supernatant was then removed and 500 μL of 50 mM ammonium bicarbonate with μL 0.2% acid-labile surfactant (ALS-1) in 50 mM ammonium bicarbonate (pH 8.0) was added. Samples were subjected to probe sonication three-times for 5 sec with cooling on ice between and insoluble material was cleared by centrifugation at 14,000 rpm for 30 mins at 4° C. Samples were normalized to approximately 2 μg/μl following a micro-Bradford assay (Pierce Bioscience), and were reduced with a final concentration of 10 mM dithiothreitol at 80° C. for 20 min. Samples were then alkylated with a final concentration of 20 mM iodoacetamide at room temperature for 45 min and trypsin was added to a final ratio of 1-to-50 (w/w) enzyme-to-protein and allowed to digest at 37° C. for 18 hr. To remove ALS-1, samples were acidified to pH 2.0 with neat TFA, incubated at 60° C. for 2 hrs and spun at 14,000 rpm to remove hydrolyzed ALS-1. Samples were either subjected directly to LC-MS analysis or subjected to a TiO2 based phosphopeptide enriched protocol.
To enrich for phosphorylated peptides prior to LC-MS analysis, either 1,125 μg and 970 μg of total digested protein from RBC ghosts co-incubated with recombinant active ERK2 experiments and experiments using epinephrine-treated cells, respectively, were brought to near dryness using vacuum centrifugation and then resuspended in 200 μL of 80% acetonitrile, 1% TFA, 50 mg/ml MassPrep Enhancer (pH 2.5) (Waters Corp. Milford, Mass.). Samples were loaded onto an in-house packed TiO2 spin column (Protea Biosciences) with a 562 μg or 485 μg binding capacity for active ERK2 treated or epinephrine treated experiments, respectively. Samples were washed twice with 200 μL 80% acetonitrile, 1% TFA, 50 mg/ml MassPrep Enhancer (pH 2.5) followed by two washes with 200 μL 80% acetonitrile, 1% TFA (pH 2.5). Retained peptides were eluted twice with 100 μL 20% acetonitrile, 5% aqueous ammonia (pH 10.0), acidified to pH 3 with neat formic acid and then brought to dryness using vacuum centrifugation. […]
MS data from each phosphopeptide enriched sample was acquired on a Thermo LTQ-Orbitrap XL mass spectrometer operating in positive-ion mode with an electrospray voltage of 2.0 kV with real-time lockmass correction on ambiant polycyclodimethylsiloxane (m/z 445.120025) enabled. […] Each sample was analyzed four-times, one of which was used for additional qualitative identifications only and was not included in the quantitative analysis, with product ions above a threshold of 500 counts were acquired for the top 5 most intense ions in the linear ion trap. […]

[7] = system: SS RBC membrane ghost phosphopeptides; assay: Label-free quantitative phosphoproteomic analysis of SS RBC membrane ghosts; format: cell-based, human; conditions: recombinant ERK2 added to U0126-treated SS RBC ghosts
Description: as §1
To enrich for phosphorylated peptides prior to LC-MS analysis, either 1,125 μg and 970 μg of total digested protein from RBC ghosts co-incubated with recombinant active ERK2 experiments and experiments using epinephrine-treated cells, respectively, were brought to near dryness using vacuum centrifugation and then resuspended in 200 μL of 80% acetonitrile, 1% TFA, 50 mg/ml MassPrep Enhancer (pH 2.5) (Waters Corp. Milford, Mass.). Samples were loaded onto an in-house packed TiO2 spin column (Protea Biosciences) with a 562 μg or 485 μg binding capacity for active ERK2 treated or epinephrine treated experiments, respectively. Samples were washed twice with 200 μL 80% acetonitrile, 1% TFA, 50 mg/ml MassPrep Enhancer (pH 2.5) followed by two washes with 200 μL 80% acetonitrile, 1% TFA (pH 2.5). Retained peptides were eluted twice with 100 μL 20% acetonitrile, 5% aqueous ammonia (pH 10.0), acidified to pH 3 with neat formic acid and then brought to dryness using vacuum centrifugation. Prior to LC-MS analysis, each sample was resuspended in 20 μL 2% acetonitrile, 0.1% TFA, 25 mM citric acid (pH 2.5).
Chromatographic separation of phosphopeptide enriched or non-enriched samples was performed on a Waters NanoAquity UPLC equipped with a 1.7 μm BEH130 C1875 μm I.D.×250 mm reversed-phase column. The mobile phase consisted of (A) 0.1% formic acid in water and (B) 0.1% formic acid in acetonitrile. Five μL injections of each sample were trapped for 5 min on a 5 μm Symmetry C18 180 μm I.D.×20 mm column at 20 μl/min in 99.9% A. The analytical column was then switched in-line and the mobile phase was held for 5 min at 5% B before applying a linear elution gradient of 5% B to 40% B or 5% B to 30% B over 90 min at 300 nL/min for ERK2 treated experiments or epinephrine treated experiments, respectively. The analytical column was connected to fused silica PicoTip emitter (New Objective, Cambridge, Mass.) with a 10 μm tip orifice and coupled to the mass spectrometer through an electrospray interface.
MS data from each phosphopeptide enriched sample was acquired on a Thermo LTQ-Orbitrap XL mass spectrometer operating in positive-ion mode with an electrospray voltage of 2.0 kV with real-time lockmass correction on ambiant polycyclodimethylsiloxane (m/z 445.120025) enabled. The instrument was set to acquire a precursor MS scan from m/z 400-2000 with r=60,000 at m/z 400 and a target AGC setting of 1e6 ions. Each sample was analyzed four-times, one of which was used for additional qualitative identifications only and was not included in the quantitative analysis, with product ions above a threshold of 500 counts were acquired for the top 5 most intense ions in the linear ion trap. […]

[8] = SS RBCs treated ex vivo with 10 μM inhibitor for 1 hour, n=5

14-22 amide: PKA-specific inhibitor (PKAI)
effect on epinephrine-induced ERK1/2 phosphorylation ([1]; SS RBCs pre-incubated with inhibitor, then 20 nM epinephrine 1 min): completely blocked
effect on basal ERK phosphorylation ([1]; SS RBCs, 30 nM): did not significantly decrease
effect on combined effect of epinephrine and SPI on ICAM-4 phosphorylation [2]: significantly decreased

Cn1cnc2c(F)c(Nc3ccc(Br)cc3Cl)c(C(=O)NOCCO)cc21 [AZD6244]
effect on SS RBC adhesion to TNF-α-activated HUVECs [3]: significantly abolished
ability of epinephrine-activated SS RBCs to promote neutrophil (PMN) adhesion to HUVECs [4]: significantly decreased

COc1c(C=O)c(O)cc2c1C(=O)c1ccccc1C2=O [Damnacanthal]
effect on PTx-induced ERK phosphorylation ([1]; SS RBCs, 2 μg/ml PTx): did not abrogate

CC(=O)Nc1cccc(-n2c(=O)n(C3CC3)c(=O)c3c(Nc4ccc(I)cc4F)n(C)c(=O)c(C)c32)c1 [GSK1120212]
effect on SS RBC adhesion to TNF-α-activated HUVECs [3]: significantly abolished
ability of epinephrine-activated SS RBCs to promote neutrophil (PMN) adhesion to HUVECs [4]: significantly decreased

COc1cc(F)c(F)c(Nc2ccc(I)cc2F)c1NS(=O)(=O)C1(C[C@H](O)CO)CC1 [RDEA119]
effect on SS RBC adhesion to TNF-α-activated HUVECs [3]: significantly abolished
ability of epinephrine-activated SS RBCs to promote neutrophil (PMN) adhesion to HUVECs [4]: significantly decreased
human SS RBC adhesion in inflamed venules [5, 8]: dramatically decreased
vessel obstruction [5, 8]: prevented vessel obstruction
percentage of venular length occupied by treated SS RBCs ([5]; vessels 25 μm in diameter): significantly decreased
percentage of venular length occupied by treated SS RBCs ([5]; vessels with a diameter >25 μm): significantly decreased

ERK2: commercial recombinant active human ERK2 (Sigma) added to RBC membrane ghosts
increase of Ser540/Ser542 doubly phosphorylated peptide within protein 4.1 ([6]; recombinant ERK2 added to U0126-treated AA RBC ghosts): 1.7 fold
increase of Ser540/Ser542 doubly phosphorylated peptide within protein 4.1 ([6]; recombinant ERK2 added to untreated AA RBC ghosts): 2.1 fold
change of Ser540/Ser542 doubly phosphorylated peptide within protein 4.1 [7]: +1.7 fold

Pertussis toxin [PTx]
increase in basal phosphorylation of ERK1/2 ([1]; SS RBCs, 1 μg/ml PTx alone): 2.04±0.1 fold
increase in basal phosphorylation of ERK1/2 ([1]; SS RBCs, 2 μg/ml PTx alone): 2.53±0.11 fold

TNF-α
increase in SS RBC adhesion vs non-activated HUVECs ([3]; HUVECs treated with TNF-α, shear stress 2 dynes/cm^2, intermittent flow): 2.6 fold
